# Test results from patent US20260284009A1, “COMPOUNDS FOR NOS-RELATED CANCERS AND METHODS OF USE” (YISSUM RESEARCH DEVELOPMENT COMPANY OF THE HEBREW …, priority 2023, published 2026).
# Tests used:
# Format in all cases: cell-based, human
# SH-SY5Y cells = assay: Western blots of 3-Ntyr, mTOR pathway components and Syp in SH-SY5Y cell lysate; conditions: western blot normalized for β-actin, 100 μM 7-NI or 20 nM siRNA
# Protocol: In FIGS. 4A-4D, for quantitative analysis data, all individual data series are presented as biological replicates (n=4) for all groups. Data were normalized for β-actin and are presented as mean±SEM. Statistical significance was determined using a One-way ANOVA followed by Fisher's LSD multiple comparison post hoc test. *P<0.05 and **P<0.01.
# FIG. 4A: Representative western blots of 3-Ntyr prepared from cell lysate of SH-SY5Y cells following administration of the control (“SH-SY5Y”—Series 1), 100 μM 7-NI (“SH-SY5Y +7-NI”—Series 2), or 20 nM siRNA (SEQ ID NO: 4) (“SH-SY5Y+si-nNOS”—Series 3).
# FIG. 4B: Quantitative analysis of 3-Ntyr levels for the experiments of FIG. 4A.
# FIG. 4C: Representative western blots of mTOR, p-mTOR, TSC-2, AKT, pAKT, RPS6, pRPS6, and Syp prepared from the cell lysate of SH-SY5Y cells following administration of the control (“SH-SY5Y”—Series 1), 100 μM 7-NI (“SH-SY5Y+7-NI”—Series 2), or 20 nM siRNA (SEQ ID NO: 4) (“SH-SY5Y+si-nNOS”—Series 3).
# FIG. 4D: Quantitative analysis of mTOR, p-mTOR, TSC-2, AKT, pAKT, RPS6, pRPS6, and Syp levels for the experiments of FIG. 4C.
# iNOS = iNOS expression level in U87-MG cells; conditions: compared to the control treatment, not statistically significant (FIG. 14)
# U87-MG cells = assay: Griess assay, nitrite and nitrate content; conditions: L-NIL alone, compared to the control (summary statement)
# Protocol: In a particular example, in vitro and in vivo experiments were performed using U87-MG cells and U87-MG-xenografted mice, respectively, as a glioblastoma model.
Structure (SMILES),expression levels of 3-nitrotyrosine (3-Ntyr) (SH-SY5Y cells),expression levels of AKT (SH-SY5Y cells),expression levels of RPS6 (SH-SY5Y cells),expression levels of TSC-2 (SH-SY5Y cells),expression levels of mTOR (SH-SY5Y cells),expression levels of p-mTOR (SH-SY5Y cells),expression levels of pAKT (SH-SY5Y cells),expression levels of pRPS6 (SH-SY5Y cells),expression levels of synaptophysin (Syp) (SH-SY5Y cells),expression level of iNOS (iNOS; higher dose),expression level of iNOS (iNOS; lower dose),total nitrate and nitrite content (U87-MG cells)
"O=[N+]([O-])c1cccc2cn[nH]c12 [7-NI, 7-nitroindazole]",significant decrease,significant decrease,significant decrease,significant decrease,significant decrease,significant decrease,significant decrease,significant decrease,significant decrease,–,–,–
"CC(=N)NCCCC[C@H](N)C(=O)O [L-NIL, N^6-(1-iminoethyl)-L-lysine]",–,–,–,–,–,–,–,–,–,unchanged,slightly elevated,significantly reduced
